Measurements published in patent publication US20130204033A1, “ANTIPROLIFERATIVE COMPOUNDS, CONJUGATES THEREOF, METHODS THEREFOR, AND USES THEREOF” (Medarex, Inc., priority 2009, published 2013).
pEC50: −log10 of the molar value. Where two headings read alike, the source gives them in different places.

Legend:
Format in all cases: cell-based, human
PC3 = experiment: 3H thymidine proliferation assay, PC3
Method in brief: (§1)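 Seeding: 1.0×10^4 cells/well, 3 h. Dosing: 1:3 serial dilutions, 72 h. Label: ^3H-thymidine 1.0 μCi/well for last 24 h, scintillation read; EC50 = 50% proliferation reduction.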

BT474 [1] = experiment: ATP luminescence proliferation assay, BT474
Protocol: (§2) This example generally describes the procedures used to assay the antiproliferative activity of compounds of this invention or their conjugates. Human tumor cell lines were obtained from the American Type Culture Collection (ATCC), P.O. Box 1549, Manassas, Va. 20108, USA, and cultured according to instruction from the ATCC. Cells were seeded at 1.0×10^3 or 1.0×10^4 cells/well in 96-well plates for 3 h for ATP assays or ^3H thymidine assays, respectively. 1:3 serial dilutions of free (unconjugated) compounds or their conjugates were added to the wells. Plates were allowed to incubate for 24 to 72 h. The ^3H thymidine plates were pulsed with 1.0 μCi of ^3H-thymidine per well for the last 24 hours of the total incubation period, harvested, and read on a Top Count Scintillation Counter (Packard Instruments, Meriden, Conn.). ATP levels in the ATP plates were measured using the […]-GLO® Luminescent Cell Viability kit following the manufacturer's manual and read on a GLOMAX® 20/20 luminometer (both from Promega, Madison, Wis., USA). The EC50 values—the concentration at which an agent inhibits or reduces cell proliferation by 50% —were determined using PRISM™ software, version 4.0 (GraphPad Software, La Jolla, Calif., USA).
(§3) Using the ^3H thymidine or the ATP luminescence assay, or both, the activities of compounds of this invention were assayed against the following cancer cell lines: HCT-15 (colorectal cancer, multi-drug resistant (MDR)); Hep3B (liver cancer); LNCaP (prostate cancer, androgen receptor positive (AR^+)); MDA-MB-231 (breast cancer, estrogen receptor, progesterone receptor, and Her2 negative (triple negative)); A2058 (melanoma); U-87 MG (glioblastoma); NCI-H460 (NSCLC); A549 (NSCLC); HPAC (pancreatic cancer, primary); PC3 (prostate cancer, AR); BT474 (breast cancer, Her2 highly positive (Her2hi)); SKOV3 (ovarian cancer, Her2hi); 786-O (renal cancer); UO-31 (renal cancer, MDR); NCI-H740 (SCLC); DMS53 (SCLC); SK-BR3 (breast cancer, Her2hi); ZR-75 (breast cancer, estrogen receptor positive); OVCAR3 (ovarian cancer); HL-60 (APL); OVCAR8/Adr (ovarian cancer, MDR); CEM-Cl (ALL); Nomo-1 (AML); RPMI-8226 (MM)); Raji (lymphoma); SW-480 (colorectal cancer, metastatic); SW-620 (colorectal cancer); and H226 (lung cancer). (Not all compounds were assayed against all cell lines.)
(§4) Table 3 provides the data for the ATP luminescence proliferation assays, with an incubation period of 48, 72, or 96 h, as noted.

786-O [2] = experiment: 3H thymidine proliferation assay, 786-O
Method in brief: as §1

Nomo-1 = experiment: ATP luminescence proliferation assay, Nomo-1
Protocol: as §2, §3, §4

SKOV3 [3] = experiment: 3H thymidine proliferation assay, SKOV3
Method in brief: as §1

A549 = experiment: 3H thymidine proliferation assay, A549
Method in brief: as §1

ZR-75 = experiment: 3H thymidine proliferation assay, ZR-75
Method in brief: as §1

SKOV3 [4] = experiment: ATP luminescence proliferation assay, SKOV3
Protocol: as §2, §3, §4

RPMI-8226 [5] = experiment: 3H thymidine proliferation assay, RPMI-8226
Method in brief: as §1

UO-31 = experiment: ATP luminescence proliferation assay, UO-31
Protocol: as §2, §3, §4

RPMI-8226 [6] = experiment: ATP luminescence proliferation assay, RPMI-8226
Protocol: as §2, §3, §4

HL-60 = experiment: 3H thymidine proliferation assay, HL-60
Method in brief: as §1

HPAC = experiment: ATP luminescence proliferation assay, HPAC
Protocol: as §2, §3, §4

BT474 [7] = experiment: 3H thymidine proliferation assay, BT474
Method in brief: as §1

U-87 MG = experiment: 3H thymidine proliferation assay, U-87 MG
Method in brief: as §1

DMS53 = experiment: 3H thymidine proliferation assay, DMS53
Method in brief: as §1

SW-620 = experiment: ATP luminescence proliferation assay, SW-620
Protocol: as §2, §3, §4

786-O [8] = experiment: ATP luminescence proliferation assay, 786-O
Method in brief: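 Read-out: luminescent ATP cell viability after 48, 72 or 96 h incubation, as noted, with 1:3 serial dilutions of unconjugated compounds or their conjugates. Plating was 1.0×10^3 cells/well, 3 h before dosing. EC50 = concentration giving 50% inhibition of proliferation.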

[9] = 3H thymidine method, 72 h incubation, read-out: EC50, PC3
[10] = ATP luminescence, BT474, 48 h incubation, read-out: EC50 BT474 (48 h)
[11] = 3H thymidine method, 72 h incubation, read-out: EC50, 786-O
[12] = 3H thymidine method, 72 h incubation, read-out: EC50, SKOV3
[13] = 3H thymidine method, 72 h incubation, read-out: EC50, A549
[14] = 3H thymidine method, 72 h incubation, read-out: EC50, ZR-75
[15] = ATP luminescence, SKOV3, 72 h incubation, read-out: EC50 SKOV3 (72 h)
[16] = 3H thymidine method, 72 h incubation, read-out: EC50, RPMI-8226
[17] = ATP luminescence, UO-31, 48 h incubation, read-out: EC50 UO-31 (48 h)
[18] = ATP luminescence, RPMI-8226, 72 h incubation, read-out: EC50 RPMI-8226 (72 h)
[19] = 3H thymidine method, 72 h incubation, read-out: EC50, HL-60
[20] = ATP luminescence, 72 h incubation, read-out: EC50 HPAC (72 h)
[21] = 3H thymidine method, 72 h incubation, read-out: EC50, BT474
[22] = 3H thymidine method, 72 h incubation, read-out: EC50, U-87 MG
[23] = 3H thymidine method, 72 h incubation, read-out: EC50, DMS53
[24] = ATP luminescence, SW-620, 96 h incubation, read-out: EC50 SW-620 (96 h)
[25] = ATP luminescence, 786-O, 72 h incubation, read-out: EC50 786-O (72 h)

CC[C@H](C)[C@H](NC(=O)[C@H]1CCCCN1C)C(=O)N(C)[C@H](C[C@@H](OC(C)=O)c1nc(C(=O)N[C@@H](Cc2ccc(N)cc2)CC(C)C(=O)O)cs1)C(C)C (stereo partly drawn) [Compound 36]
pEC50 (PC3; Homo sapiens, PC-3, read-out: EC50, PC3, 3H thymidine method, 72 h incubation): 7.18 | pEC50 (BT474 [1]; Homo sapiens, BT-474, 48 h, read-out: EC50 BT474 (48 h), ATP luminescence, BT474, 48 h incubation): ~6.92 | pEC50 (786-O [2]; Homo sapiens, 786-0, read-out: EC50, 786-O, 3H thymidine method, 72 h incubation): < 7.00 | pEC50 (Nomo-1; Homo sapiens, NOMO-1, 48 h, read-out: EC50 Nomo-1 (48 h), ATP luminescence, Nomo-1, 48 h incubation): 7.47 | pEC50 (SKOV3 [3]; Homo sapiens, SK-OV-3, read-out: EC50, SKOV3, 3H thymidine method, 72 h incubation): 7.49 | pEC50 (A549; Homo sapiens, A549, read-out: EC50, A549, 3H thymidine method, 72 h incubation): 7.36 | pEC50 (ZR-75; Homo sapiens, ZR75, read-out: EC50, ZR-75, 3H thymidine method, 72 h incubation): < 7.00 | pEC50 (SKOV3 [4]; Homo sapiens, SK-OV-3, 72 h, read-out: EC50 SKOV3 (72 h), ATP luminescence, SKOV3, 72 h incubation): 7.35 | pEC50 (RPMI-8226 [5]; Homo sapiens, RPMI-8226, read-out: EC50, RPMI-8226, 3H thymidine method, 72 h incubation): 7.32 | pEC50 (UO-31; Homo sapiens, UO-31, 48 h, read-out: EC50 UO-31 (48 h), ATP luminescence, UO-31, 48 h incubation): 8.06 | pEC50 (RPMI-8226 [6]; Homo sapiens, RPMI-8226, 72 h, read-out: EC50 RPMI-8226 (72 h), ATP luminescence, RPMI-8226, 72 h incubation): 7.21 | pEC50 (HL-60; Homo sapiens, HL-60, read-out: EC50, HL-60, 3H thymidine method, 72 h incubation): 6.97 | pEC50 (HPAC; Homo sapiens, 72 h, read-out: EC50 HPAC (72 h), ATP luminescence, HPAC, 72 h incubation): 8.54 | pEC50 (BT474 [7]; Homo sapiens, BT-474, read-out: EC50, BT474, 3H thymidine method, 72 h incubation): < 7.00 | pEC50 (U-87 MG; Homo sapiens, U-87 MG, read-out: EC50, U-87 MG, 3H thymidine method, 72 h incubation): 7.82 | pEC50 (DMS53; Homo sapiens, DMS-53, read-out: EC50, DMS53, 3H thymidine method, 72 h incubation): < 7.00 | pEC50 (SW-620; Homo sapiens, SW-620, 96 h, read-out: EC50 SW-620 (96 h), ATP luminescence, SW-620, 96 h incubation): 7.35 | pEC50 (786-O [8]; Homo sapiens, 786-0, 72 h, read-out: EC50 786-O (72 h), ATP luminescence, 786-O, 72 h incubation): 6.74

CCC[C@H](NC(=O)[C@H](Cc1ccccc1)NC(=O)c1csc([C@@H](C[C@H](C(C)C)N(C)C(=O)[C@@H](NC(=O)[C@H]2CCCCN2C)[C@@H](C)CC)OC)n1)C(=O)OC [Compound 19]
pEC50 (PC3; [9]): < 7.00 | pEC50 (BT474 [1]; [10]): 8.06 | pEC50 (786-O [2]; [11]): < 7.00 | pEC50 (Nomo-1; ATP luminescence, Nomo-1, 72 h incubation, read-out: EC50 Nomo-1 (72 h)): 8.28 | pEC50 (SKOV3 [3]; [12]): < 7.00 | pEC50 (A549; [13]): < 7.00 | pEC50 (ZR-75; [14]): 7.47 | pEC50 (SKOV3 [4]; [15]): 7.82 | pEC50 (RPMI-8226 [5]; [16]): 7.64 | pEC50 (UO-31; [17]): < 7.00 | pEC50 (RPMI-8226 [6]; [18]): 8.02 | pEC50 (HL-60; [19]): 7.43 | pEC50 (HPAC; [20]): 9.48 | pEC50 (BT474 [7]; [21]): < 7.00 | pEC50 (U-87 MG; [22]): < 7.00 | pEC50 (DMS53; [23]): < 7.00 | pEC50 (SW-620; [24]): 7.85 | pEC50 (786-O [8]; [25]): 7.40

CC[C@H](C)[C@H](NC(=O)[C@H]1CCCCN1C)C(=O)N(COC(=O)CC(C)C)[C@H](C[C@@H](OC(C)=O)c1nc(C(=O)N[C@@H](Cc2ccccc2)C(=O)OC)cs1)C(C)C [Compound 29]
pEC50 (PC3; [9]): 9.68 | pEC50 (BT474 [1]; [10]): 8.82 | pEC50 (786-O [2]; [11]): 8.92 | pEC50 (Nomo-1; ATP luminescence, Nomo-1, 48 h incubation, read-out: EC50 Nomo-1 (48 h)): 9.62 | pEC50 (SKOV3 [3]; [12]): 10.54 | pEC50 (A549; [13]): 9.36 | pEC50 (ZR-75; [14]): 8.42 | pEC50 (SKOV3 [4]; [15]): 8.89 | pEC50 (RPMI-8226 [5]; [16]): 10.47 | pEC50 (UO-31; [17]): 8.57 | pEC50 (RPMI-8226 [6]; [18]): 9.00 | pEC50 (HL-60; [19]): 11.00 | pEC50 (HPAC; [20]): 8.31 | pEC50 (BT474 [7]; [21]): 9.24 | pEC50 (U-87 MG; [22]): 10.19 | pEC50 (DMS53; [23]): 9.55 | pEC50 (SW-620; [24]): 8.82 | pEC50 (786-O [8]; [25]): 8.55
